“Also recorded” adds a separate entry of the source. Peptide text beside a SMILES is read from it.
Tested on: E. coli 287 (ATCC #11775)
Format: cell-based

Compound	carbon source utilization result
C[N+](C)(C)CC(O)CC(=O)[O-] (racemic) [D,L-carnitine]	negative
CC(O)C(=O)O (racemic) [D,L-lactic acid]	positive
CC(O)C(C)O (centres unmarked) [2,3-butanediol]	positive/negative
CC(=O)O [Acetic acid]	positive
OC[C@@H](O)[C@@H](O)[C@@H](O)CO [Adonitol]	negative
O=C(O)[C@H](O)[C@@H](O)[C@H](O)[C@H](O)CO [D-gluconic acid]	positive
O=C[C@H](O)[C@@H](O)[C@H](O)[C@H](O)C(=O)O [D-glucuronic acid]	positive
NCC(=O)N[C@@H](CC(=O)O)C(=O)O [Glycyl-L-aspartic acid] (H-Gly-Asp-OH)	positive
CC(C)C[C@H](N)C(=O)O [L-leucine]	negative
C[C@H](O)[C@H](O)[C@@H](O)[C@@H](O)C=O [L-rhamnose]	positive
CC(=O)N[C@H]1C(O)O[C@H](CO)[C@H](O)[C@@H]1O (stereo partly drawn) [N-acetyl-D-galactosamine]	positive
NCCc1ccccc1 [Phenylethyl amine]	positive/negative
Cc1cn([C@H]2C[C@H](O)[C@@H](CO)O2)c(=O)[nH]c1=O [Thymidine]	positive
C[C@H](N)C(N)=O [alaninamide]	positive
O=C(O)/C=C(/CC(=O)O)C(=O)O [cis-aconitic acid]	positive/negative
C=C(CC(=O)O)C(=O)O [itaconic acid]	negative
O=C(O)CC(=O)O [malonic acid]	negative
NCCCCN [putrescine]	positive/negative
O=C(O)/C=C/c1c[nH]cn1 [urocanic acid]	negative; also recorded: equivocal; also recorded: positive
OC[C@@H](O)[C@H](O)[C@@H](O)CO [xylitol]	negative
OC[C@H]1O[C@@H](O[C@H]2[C@H](O)[C@@H](O)[C@@H](O)O[C@@H]2CO)[C@H](O)[C@@H](O)[C@H]1O [α-D-lactose]	positive
OC[C@H]1O[C@@H]2O[C@H]3[C@H](O)[C@@H](O)[C@@H](O[C@H]4[C@H](O)[C@@H](O)[C@@H](O[C@H]5[C@H](O)[C@@H](O)[C@@H](O[C@H]6[C@H](O)[C@@H](O)[C@@H](O[C@H]7[C@H](O)[C@@H](O)[C@@H](O[C@H]1[C@H](O)[C@H]2O)O[C@@H]7CO)O[C@@H]6CO)O[C@@H]5CO)O[C@@H]4CO)O[C@@H]3CO [α-cyclodextrin]	negative
CCCC(=O)C(=O)O [α-ketovaleric acid]	negative
O=C(O)CCCO [γ-hydroxybutyric acid]	negative

Tested on: E. coli MG1655
Format: cell-based

Compound	suitability as nitrogen source (growth, purple color)
CCCCCCC(N)C(=O)O (racemic) [DL-α-amino-caprylic acid]	not suitable
CCC(N)C(=O)O (racemic) [DL-α-amino-n-butyric acid]	not suitable
CCCC(N)C(=O)O (centres unmarked) [2-amino-valeric acid]	not suitable
C[C@@H](N)c1ccccc1 [(R)-(+)-α-phenylethylamine]	not suitable
Nc1ncnc2c1ncn2[C@@H]1O[C@H](CO)[C@@H](O)[C@H]1O [Adenosine]	not suitable
N[C@H]1C(O)O[C@H](CO)[C@H](O)[C@@H]1O (stereo partly drawn) [D(+)-galactosamine]	weak positive
N[C@H]1C(O)O[C@H](CO)[C@@H](O)[C@@H]1O (stereo partly drawn) [D(+)-glucosamine]	positive
NC(=O)C[C@@H](N)C(=O)O [D-asparagine]	not suitable
N[C@H](CCC(=O)O)C(=O)O [D-glutamic acid]	not suitable
NCCCC[C@@H](N)C(=O)O [D-lysine]	not suitable
N[C@@H]1C(O)O[C@H](CO)[C@@H](O)[C@@H]1O (stereo partly drawn) [D-mannosamine]	weak positive
CC(C)[C@@H](N)C(=O)O [D-valine]	not suitable
NC(=O)[C@@H](O)[C@@H](O)[C@H](O)[C@@H](O)C=O [Glucuronamide]	not suitable
N=C(N)NCCC[C@H](N)C(=O)O [L-arginine]	positive
NC(=O)NCCC[C@H](N)C(=O)O [L-citrulline]	not suitable
N[C@@H](CCO)C(=O)O [L-homoserine]	not suitable
CC[C@H](C)[C@H](N)C(=O)O [L-isoleucine]	not suitable
CC(C)C[C@H](N)C(=O)O [L-leucine]	not suitable
NCCCC[C@H](N)C(=O)O [L-lysine]	not suitable
N[C@@H](Cc1ccc(O)cc1)C(=O)O [L-tyrosine]	not suitable

Compound	suitability as nitrogen source (growth, purple color)
CC(C)[C@H](N)C(=O)O [L-valine]	not suitable
CC(=O)N[C@H]1C(O)O[C@H](CO)[C@H](O)[C@@H]1O (stereo partly drawn) [N-acetyl-D-galactosamine]	not suitable
CC(=O)N[C@@H]1C(O)O[C@H](CO)[C@@H](O)[C@@H]1O (stereo partly drawn) [N-acetyl-D-mannosamine]	not suitable
CC(=O)NCC(=O)O [N-acetyl-glycine]	not suitable
Cl.N [NH4Cl, ammonium chloride]	positive
NCCc1ccccc1 [Phenylethyl amine]	not suitable
Cc1cn([C@H]2C[C@H](O)[C@@H](CO)O2)c(=O)[nH]c1=O [Thymidine]	not suitable
NCCc1ccc(O)cc1 [Tyramine]	not suitable
CC(N)=O [acetamide]	not suitable
Nc1ncnc2nc[nH]c12 [adenine]	not suitable
N=C(N)NCCCCN [agmatine]	not suitable
C[C@H](N)C(=O)N[C@@H](CCC(N)=O)C(=O)O [ala-gln] (H-Ala-Gln-OH)	positive
C[C@H](N)C(=O)N[C@@H](Cc1cnc[nH]1)C(=O)O [ala-his] (H-Ala-His-OH)	not suitable
C[C@H](N)C(=O)N[C@H](C(=O)O)[C@@H](C)O [ala-thr] (H-Ala-Thr-OH)	positive
O=C1NC(=O)C(=O)C(=O)N1 [alloxan]	not suitable
CCN [ethylamine]	not suitable
NCCN [ethylenediamine]	not suitable
NC=O [formamide]	not suitable
C[C@H](NC(=O)CN)C(=O)O [gly-ala] (H-Gly-Ala-OH)	positive
NCC(=O)N[C@@H](CC(N)=O)C(=O)O [gly-asn] (H-Gly-Asn-OH)	positive

Compound	suitability as nitrogen source (growth, purple color)
NCC(=O)N[C@@H](CCC(N)=O)C(=O)O [gly-gln] (H-Gly-Gln-OH)	positive
CSCC[C@H](NC(=O)CN)C(=O)O [gly-met]	positive
NCC(=O)O [glycine]	positive
O=C(O)CNC(=O)c1ccccc1 [hippuric acid]	not suitable
NCCc1c[nH]cn1 [histamine]	not suitable
CC(O)C(N)=O (centres unmarked) [lactamide]	not suitable
CSCC[C@H](N)C(=O)N[C@@H](C)C(=O)O [met-ala] (H-Met-Ala-OH)	not suitable
CCCCCN [n-amylamine]	not suitable
CCCCN [n-butylamine]	not suitable
O=[N+]([O-])[O-].[K+] [potassium nitrate]	not suitable
NCCCCN [putrescine]	not suitable
O=NO [sodium nitrite]	not suitable
Cc1c[nH]c(=O)[nH]c1=O [thymine]	not suitable
NC(N)=O [urea]	not suitable
O=c1[nH]c(=O)c2[nH]c(=O)[nH]c2[nH]1 [uric acid]	not suitable
O=C(O)/C=C/c1c[nH]cn1 [urocanic acid]	not suitable
O=c1[nH]c(=O)c2[nH]cnc2[nH]1 [xanthine]	not suitable
O=c1[nH]c(=O)c2ncn([C@@H]3O[C@H](CO)[C@@H](O)[C@H]3O)c2[nH]1 [xanthosine]	not suitable
NCCCCCC(=O)O [ε-amino-n-caproic acid]	not suitable

Tested on: E. coli MG1655
Format: cell-based
Remark: another data set of the same source

Compound	suitability as sulfur source (growth, purple color)	suitability as phosphorus source (growth, purple color)
CCSCCC(N)C(=O)O (racemic) [DL-ethionine]	not suitable	–
CSCCC(NC(C)=O)C(=O)O (racemic) [N-acetyl-DL-methionine]	positive	–
CSCCC(NC(=O)CN)C(=O)O (racemic) [glycyl-DL-methionine]	positive	–
CCCCCCCCCCCCS(=O)(=O)O [1-dodecane-sulfonic acid]	not suitable	–
O=C(O)C(CO)OP(=O)(O)O (centres unmarked) [2-phosphoglyceric acid]	–	positive
O=C(O)[C@H](O)[C@@H](O)[C@H](O)[C@H](O)COP(=O)(O)O [6-phosphogluconic acid]	–	positive
